# Laboratory results reported in patent US10624908B2, “Phosphopantetheine compounds alone or in combination with HMG-CoA reductase inhibitors for lowering serum cholesterol and serum triglicerides” (COMET THERAPEUTICS, INC., priority 2014, dated 2020).
# Experiments:
# [1] = 3 h, 10 μM
# [2] = 400 U Coenzyme A/day for 3 weeks combined with statins, oral; cited from earlier work
# [3] = Translocation through cell membranes / uptake by cells; format: cell-based
# [4] = patients with moderate dyslipidemia; cited from earlier work
# HEK293 cells = experiment: Rescue potential of CoA and 4′-phosphopantetheine in HOPAN assay; format: cell-based, mammalian; settings: HOPAN 0.5 mM, 250 μM compound, 4 days
# Protocol: Mammalian HEK293 cells treated with the chemical inhibitor HOPAN (hopanthenate, CAS 17097-76-6, IUPAC: calcium 4-[[(2R)-2,4-dihydroxy-3,3-dimethylbutanoyl]amino]butanoate). Cells treated with HOPAN show a reduction in intracellular CoA levels, which induces a decrease in cell viability.
# Materials and Methods: HEK293 cells were cultured in vitamin B5 deficient DMEM (Thermo Scientific) supplemented with 10% dialysed FCS (Thermo Scientific) with and without HOPAN (0.5 mM) and CoA and 4′-phosphopantetheine for 4 days. 250 μM of CoA and 4′-phosphopantetheine was used for determination of rescue efficiency.
# [5] = Conversion of CoA into 4′-phosphopantetheine in human serum (HPLC)
CoA degraded in human serum [1] [%],stability in human serum ([5]; human serum over 6 hours incubation),"concentrations of 4′-phosphopantetheine generated from CoA in human serum ([5]; human serum, 37° C., 6 hours incubation of CoA, HPLC)",SMILES,toxicity [2],translocation through cell membranes / uptake by cells [3],plasma triglyceride levels [4],rescue of HOPAN induced cell count defect (HEK293 cells; FIG. 2),rescue of HOPAN induced decrease of intracellular CoA levels (HEK293 cells; FIG. 3),"rescue of HOPAN induced cell count defect (HEK293 cells; FIG. 2, listed as 4PPT)","rescue of HOPAN induced decrease of intracellular CoA levels (HEK293 cells; FIG. 3, listed as 4PPT)"
60,,,"CC(C)(COP(=O)(O)OP(=O)(O)OC[C@H]1O[C@@H](n2cnc3c(N)ncnc32)[C@H](O)[C@@H]1OP(=O)(O)O)[C@@H](O)C(=O)NCCC(=O)NCCS [CoA, Coenzyme A, reference compound]",no toxicity was observed,cells do not absorb CoA directly,effectively reduce plasma triglyceride levels,rescued the cell count defect,significantly rescued,,
,stable,observed to increase,CC(C)(COP(=O)(O)O)[C@@H](O)C(=O)NCCC(=O)NCCS [4′-phosphopantetheine],,able to effectively translocate through cell membranes,,rescued the cell count defect,significantly rescued,as potent as CoA,as potent as CoA
